Assay results reported in ChEMBL document CHEMBL4334520, “Nonadride and Spirocyclic Anhydride Derivatives from the Plant Endophytic Fungus Talaromyces purpurogenus” (J Nat Prod, 2019).
Blank lines part the entries; values can stand above or below the compound they belong to.

Assays:
[1] = biological target: Xanthine dehydrogenase/oxidase (Homo sapiens, UniProt P47989); assay: Inhibition of xanthine oxidase (unknown origin) at 10 uM using xanthine as substrate incubated for 15 mins relative to control; details: 0.25 h
RAW264.7 [2] = assay: Anti-inflammatory activity in mouse RAW264.7 cells assessed as inhibition of LPS-induced NO production pretreated with compounds followed by LPS stimulation incubated for 24 hrs by Griess assay; type: functional, cell-based
RAW264.7 [3] = assay: Growth inhibition of mouse RAW264.7 cells relative to control; type: cell-based
[4] = biological target: T1, Tyrosine-protein phosphatase non-receptor type 1 (Homo sapiens) (UniProt P18031); assay: Inhibition of recombinant human PTP1B expressed in Escherichia coli BL21 at 10 uM using […] as substrate […] for 5 mins followed by substrate addition measured after 10 mins relative to control
T1 sequence (whole entry): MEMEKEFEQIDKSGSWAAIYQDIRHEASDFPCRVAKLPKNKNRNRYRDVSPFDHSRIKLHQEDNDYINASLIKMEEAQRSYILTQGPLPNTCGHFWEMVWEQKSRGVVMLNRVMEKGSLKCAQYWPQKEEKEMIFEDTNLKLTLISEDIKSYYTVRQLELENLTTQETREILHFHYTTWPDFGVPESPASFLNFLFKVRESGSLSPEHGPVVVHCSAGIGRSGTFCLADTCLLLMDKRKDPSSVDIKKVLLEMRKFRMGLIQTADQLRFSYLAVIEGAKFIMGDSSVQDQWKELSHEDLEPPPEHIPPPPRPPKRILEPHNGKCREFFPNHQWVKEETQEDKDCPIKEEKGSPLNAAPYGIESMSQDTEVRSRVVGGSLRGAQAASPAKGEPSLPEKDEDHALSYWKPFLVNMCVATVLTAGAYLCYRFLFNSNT

Chain of Xanthine dehydrogenase/oxidase (P47989 whole entry): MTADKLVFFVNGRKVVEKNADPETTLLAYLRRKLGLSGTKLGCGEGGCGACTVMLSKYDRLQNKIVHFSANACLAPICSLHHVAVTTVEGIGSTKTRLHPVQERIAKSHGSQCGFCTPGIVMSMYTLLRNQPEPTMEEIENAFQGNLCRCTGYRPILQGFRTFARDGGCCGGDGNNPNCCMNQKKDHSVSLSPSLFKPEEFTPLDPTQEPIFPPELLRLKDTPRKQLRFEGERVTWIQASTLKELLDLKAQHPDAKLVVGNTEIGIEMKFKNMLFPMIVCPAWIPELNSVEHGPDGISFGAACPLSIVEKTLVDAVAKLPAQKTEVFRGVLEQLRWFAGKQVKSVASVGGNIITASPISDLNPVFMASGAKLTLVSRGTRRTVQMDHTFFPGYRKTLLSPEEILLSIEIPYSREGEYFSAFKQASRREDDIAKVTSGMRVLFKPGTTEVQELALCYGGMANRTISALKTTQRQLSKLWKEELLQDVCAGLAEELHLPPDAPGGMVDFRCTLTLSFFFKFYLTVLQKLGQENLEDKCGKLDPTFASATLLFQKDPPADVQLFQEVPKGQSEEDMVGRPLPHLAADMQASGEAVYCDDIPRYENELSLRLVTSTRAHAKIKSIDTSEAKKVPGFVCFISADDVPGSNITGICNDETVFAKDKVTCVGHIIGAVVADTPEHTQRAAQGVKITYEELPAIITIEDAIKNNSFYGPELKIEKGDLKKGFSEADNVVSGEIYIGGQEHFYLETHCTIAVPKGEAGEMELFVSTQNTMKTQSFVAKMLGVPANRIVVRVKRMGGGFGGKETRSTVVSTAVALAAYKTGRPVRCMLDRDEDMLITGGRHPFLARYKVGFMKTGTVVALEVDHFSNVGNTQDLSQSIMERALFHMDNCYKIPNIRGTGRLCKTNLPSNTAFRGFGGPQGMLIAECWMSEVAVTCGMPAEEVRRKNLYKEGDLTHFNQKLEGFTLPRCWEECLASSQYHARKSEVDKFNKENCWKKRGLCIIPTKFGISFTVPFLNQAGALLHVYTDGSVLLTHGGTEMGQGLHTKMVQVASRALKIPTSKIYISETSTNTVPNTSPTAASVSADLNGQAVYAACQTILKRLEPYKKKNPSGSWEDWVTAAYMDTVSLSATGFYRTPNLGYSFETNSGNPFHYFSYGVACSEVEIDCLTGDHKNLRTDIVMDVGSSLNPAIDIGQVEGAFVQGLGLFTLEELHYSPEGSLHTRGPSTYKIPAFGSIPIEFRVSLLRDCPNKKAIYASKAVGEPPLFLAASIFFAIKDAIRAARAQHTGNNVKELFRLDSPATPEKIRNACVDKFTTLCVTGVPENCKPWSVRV

Compound: CCCCCC[C@H](O)[C@@H]1/C(C(=O)O)=C(/C(=O)O)C[C@H]([C@@H](O)[C@H](O)CCCC)CC2=C(C(=O)OC2=O)[C@H]1O
inhibition at 10 µM [1]: 67%

Compound: CCCCCC[C@H](O)[C@@H]1/C(C(=O)O)=C(/C(=O)O)C[C@H]([C@@H](O)[C@H]2CC=CC(=O)O2)CC2=C(C(=O)OC2=O)[C@H]1O
IC50 (RAW264.7 [2]): 1900 nM
growth inhibition (GI) (RAW264.7 [3]): -14.5%

inhibition [4]: 76%
Compound: CCCCCCC[C@@H](CC1=C(/C=C/CCC/C=C\CO)C(=O)OC1=O)C1=C(C)C(=O)OC1=O
